Assay results: ChEMBL document CHEMBL1201862, “PubChem BioAssay data set” (2004)
Calls of active or inactive are those of the source.

What was measured:
[1] = target: Fructose-bisphosphate aldolase (Mycobacterium tuberculosis, UniProt P9WQA3); test: Fluorescence-based biochemical high throughput dose response assay for inhibitors of the fructose-bisphosphate aldolase (FBA) of M. tuberculosis.; type: functional
SUMO-activating enzyme = SUMO-activating enzyme (Homo sapiens, UniProt Q9UBT2); test: SUMOylation inhibitor hit validation, confirmation, SUMOylation inhibitor project, biochemical, AlphaScreen (AID 2018); type: functional
Sequence of SUMO-activating enzyme (Q9UBE0 whole entry): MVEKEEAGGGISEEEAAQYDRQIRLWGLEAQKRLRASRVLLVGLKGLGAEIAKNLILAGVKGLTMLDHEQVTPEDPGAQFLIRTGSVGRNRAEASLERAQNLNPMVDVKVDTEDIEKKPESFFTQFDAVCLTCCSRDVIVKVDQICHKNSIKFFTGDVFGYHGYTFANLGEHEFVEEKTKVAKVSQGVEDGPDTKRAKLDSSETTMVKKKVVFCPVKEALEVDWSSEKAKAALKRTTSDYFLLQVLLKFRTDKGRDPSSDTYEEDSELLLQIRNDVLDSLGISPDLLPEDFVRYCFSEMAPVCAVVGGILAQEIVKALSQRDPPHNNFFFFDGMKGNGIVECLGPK
Sequence of SUMO-activating enzyme (Q9UBT2 whole entry): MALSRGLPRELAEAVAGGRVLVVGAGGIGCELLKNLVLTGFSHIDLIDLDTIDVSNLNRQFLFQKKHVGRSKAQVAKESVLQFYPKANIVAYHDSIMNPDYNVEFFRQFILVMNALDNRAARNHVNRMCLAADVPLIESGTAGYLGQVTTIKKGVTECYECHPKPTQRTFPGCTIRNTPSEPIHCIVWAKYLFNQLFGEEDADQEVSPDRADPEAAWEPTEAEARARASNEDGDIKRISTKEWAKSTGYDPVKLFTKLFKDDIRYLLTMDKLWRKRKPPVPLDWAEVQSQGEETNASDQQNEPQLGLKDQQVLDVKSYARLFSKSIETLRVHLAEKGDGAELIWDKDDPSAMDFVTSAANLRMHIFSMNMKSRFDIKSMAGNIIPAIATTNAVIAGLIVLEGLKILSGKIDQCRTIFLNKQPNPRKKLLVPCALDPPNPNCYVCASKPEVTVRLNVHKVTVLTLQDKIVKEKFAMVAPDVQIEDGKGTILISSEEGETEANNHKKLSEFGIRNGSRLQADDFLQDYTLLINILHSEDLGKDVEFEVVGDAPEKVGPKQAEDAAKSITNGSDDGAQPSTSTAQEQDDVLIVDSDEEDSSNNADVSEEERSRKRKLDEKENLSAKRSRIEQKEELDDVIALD

[2] = target: T1, Sentrin-specific protease 6 (Homo sapiens, UniProt Q9GZR1); type: functional;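 also: Luminescence-based dose-response confirmatory assay of SENP6 inhibition, following up an ultra-high-throughput screen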
T1 sequence (Q9GZR1 whole entry): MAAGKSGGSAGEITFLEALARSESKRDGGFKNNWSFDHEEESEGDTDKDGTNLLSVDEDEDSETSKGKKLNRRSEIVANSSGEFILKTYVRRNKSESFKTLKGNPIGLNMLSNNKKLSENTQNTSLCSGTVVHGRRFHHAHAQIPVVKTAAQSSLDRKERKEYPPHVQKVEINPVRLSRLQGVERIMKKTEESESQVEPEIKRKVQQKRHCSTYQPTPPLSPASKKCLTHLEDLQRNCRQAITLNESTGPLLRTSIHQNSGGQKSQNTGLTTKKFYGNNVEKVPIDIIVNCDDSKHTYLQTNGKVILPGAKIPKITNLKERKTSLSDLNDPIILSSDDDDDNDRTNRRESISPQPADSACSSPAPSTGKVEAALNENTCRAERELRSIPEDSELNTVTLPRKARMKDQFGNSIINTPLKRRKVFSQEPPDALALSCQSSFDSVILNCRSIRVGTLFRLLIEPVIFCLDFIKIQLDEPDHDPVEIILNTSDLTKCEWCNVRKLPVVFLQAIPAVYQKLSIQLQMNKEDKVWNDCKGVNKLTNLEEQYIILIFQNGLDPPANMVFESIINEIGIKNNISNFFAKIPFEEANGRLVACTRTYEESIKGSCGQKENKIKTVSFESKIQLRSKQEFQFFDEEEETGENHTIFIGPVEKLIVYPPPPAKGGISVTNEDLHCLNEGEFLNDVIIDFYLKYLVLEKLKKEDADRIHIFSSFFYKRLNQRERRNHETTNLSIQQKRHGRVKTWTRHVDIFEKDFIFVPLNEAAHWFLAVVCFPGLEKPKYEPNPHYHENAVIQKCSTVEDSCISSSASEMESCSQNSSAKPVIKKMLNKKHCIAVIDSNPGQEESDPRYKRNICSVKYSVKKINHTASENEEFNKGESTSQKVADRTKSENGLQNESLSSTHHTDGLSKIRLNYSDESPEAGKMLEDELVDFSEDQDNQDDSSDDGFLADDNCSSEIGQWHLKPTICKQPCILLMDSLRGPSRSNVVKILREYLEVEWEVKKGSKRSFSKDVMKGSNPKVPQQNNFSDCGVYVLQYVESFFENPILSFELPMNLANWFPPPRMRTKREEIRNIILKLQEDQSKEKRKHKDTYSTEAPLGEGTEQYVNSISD

[3] = target: Serine/threonine-protein phosphatase PP1-alpha catalytic subunit (Homo sapiens, UniProt P62136); test: PP1 phosphatase inhibitors, dose response, biochemical, fluorescence (AID 2394)
Sequence of Serine/threonine-protein phosphatase PP1-alpha catalytic subunit (P62136 whole entry): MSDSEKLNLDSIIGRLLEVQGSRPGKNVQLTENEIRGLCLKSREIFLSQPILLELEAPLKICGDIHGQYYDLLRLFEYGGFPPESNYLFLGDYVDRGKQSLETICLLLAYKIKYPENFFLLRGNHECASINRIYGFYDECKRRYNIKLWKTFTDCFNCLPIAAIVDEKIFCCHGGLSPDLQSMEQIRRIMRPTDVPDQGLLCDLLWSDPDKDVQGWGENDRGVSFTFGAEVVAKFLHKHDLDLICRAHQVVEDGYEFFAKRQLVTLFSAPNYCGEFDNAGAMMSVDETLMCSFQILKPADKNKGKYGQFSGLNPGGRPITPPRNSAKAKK

[4] = target: T2, Serine/threonine-protein phosphatase (Homo sapiens, UniProt Q9BPW0); test: PP5 phosphatase inhibitors, dose response, biochemical, fluorescence (AID 2395)
T2 sequence (Q9BPW0 whole entry): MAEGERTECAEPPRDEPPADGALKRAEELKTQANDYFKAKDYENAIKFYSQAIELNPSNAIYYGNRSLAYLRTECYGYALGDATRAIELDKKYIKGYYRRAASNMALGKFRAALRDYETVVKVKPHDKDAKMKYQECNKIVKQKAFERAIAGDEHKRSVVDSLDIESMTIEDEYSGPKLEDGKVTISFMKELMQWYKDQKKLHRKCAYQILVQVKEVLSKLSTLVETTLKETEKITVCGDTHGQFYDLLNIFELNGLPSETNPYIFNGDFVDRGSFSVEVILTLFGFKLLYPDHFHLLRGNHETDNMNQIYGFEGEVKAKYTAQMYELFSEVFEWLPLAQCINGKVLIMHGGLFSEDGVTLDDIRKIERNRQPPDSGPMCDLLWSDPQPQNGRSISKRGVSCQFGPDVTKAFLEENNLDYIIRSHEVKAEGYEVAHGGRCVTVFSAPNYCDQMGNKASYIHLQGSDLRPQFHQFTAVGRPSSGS

A-375 = test: A375 melanoma cell viability reduction, dose response, counter-screen for MITF modulator project, cherry-pick samples, set 2 (AID 540335); type: functional, cell-based; settings: Homo sapiens
[5] = target: Glucose-6-phosphate 1-dehydrogenase (Homo sapiens, UniProt P11413); test: human G6PD enzyme inhibitors, dose response, selectivity assay for P. falciparum G6PD inhibitor project, biochemical, fluorescence (AID 504792); type: functional
Sequence of Glucose-6-phosphate 1-dehydrogenase (P11413 whole entry): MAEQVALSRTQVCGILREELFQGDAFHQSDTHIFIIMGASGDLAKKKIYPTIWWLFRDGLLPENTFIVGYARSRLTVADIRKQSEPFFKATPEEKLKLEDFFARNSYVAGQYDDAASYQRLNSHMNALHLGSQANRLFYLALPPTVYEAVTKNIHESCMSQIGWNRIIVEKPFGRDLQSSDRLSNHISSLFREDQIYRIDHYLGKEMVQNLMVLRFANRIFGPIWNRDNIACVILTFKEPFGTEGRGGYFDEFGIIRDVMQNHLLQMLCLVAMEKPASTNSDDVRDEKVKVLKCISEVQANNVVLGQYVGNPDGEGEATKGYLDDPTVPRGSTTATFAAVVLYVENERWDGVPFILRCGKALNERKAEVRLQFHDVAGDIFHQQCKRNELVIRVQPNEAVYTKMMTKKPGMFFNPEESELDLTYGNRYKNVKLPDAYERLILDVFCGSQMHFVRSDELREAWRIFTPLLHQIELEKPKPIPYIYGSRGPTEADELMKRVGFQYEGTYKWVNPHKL

Caspase-6 = target: T3, Caspase-6 (Homo sapiens, UniProt P55212); test: human caspase-6 inhibitors, dose response, biochemical, VEID-R110 fluorescence, cherry-pick (AID 720632)
T3 sequence (P55212 whole entry): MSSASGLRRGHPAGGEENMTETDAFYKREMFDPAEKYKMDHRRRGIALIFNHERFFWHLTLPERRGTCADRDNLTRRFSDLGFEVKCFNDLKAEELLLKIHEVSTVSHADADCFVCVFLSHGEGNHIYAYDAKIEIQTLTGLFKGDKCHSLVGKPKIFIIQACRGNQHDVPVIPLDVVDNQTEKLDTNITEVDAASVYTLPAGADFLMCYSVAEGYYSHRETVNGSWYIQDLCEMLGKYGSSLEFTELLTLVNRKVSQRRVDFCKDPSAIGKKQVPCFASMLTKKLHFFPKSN

[6] = Counterscreen for AddAB inhibitors: absorbance-based bacterial cell-based high throughput dose response assay for inhibitors of bacterial viability. [Related pubchem assays (depositor defined):AID435030, AID449728, AID449731, AID488942, AID488955, AID488956]; type: functional
HEK293 = test: cytotoxicity in HEK293T NF-kB-Luc cells, SAR follow-up, cytotoxicity control for NF-kB activator project, cell-based, resazurin fluorescence (AID 493251); type: functional; settings: Homo sapiens
Vero = test: cells; type: functional; settings: Chlorocebus sabaeus
[7] = cytotoxicity toward Colo320 cells – cell-based, CellTiter-Glo luminescence, IC50, dose response (AID 1117334); type: functional; settings: COLO 320
[8] = CellTiter-Glo luminescent dose response of DLD-1 viability loss (AID 1117352); type: functional
[9] = cytotoxicity toward HT-29 cells – cell-based, CellTiter-Glo luminescence, IC50, dose response (AID 1117330); type: functional
[10] = cytotoxicity toward HCT116 cells – cell-based, CellTiter-Glo luminescence, IC50, dose response (AID 1117332); type: functional; settings: HCT-116
[11] = target: Small ubiquitin-related modifier 2 (Homo sapiens, UniProt P61956); test: inhibitors of SUMO2 protein-protein interaction, dose response, selectivity assay for SUMO1 interaction inhibitor project, biochemical, FRET, human SUMO2, uHTS hits (AID 624384); type: functional; settings: read-out: IC50_Mean
Sequence of Small ubiquitin-related modifier 2 (P61956 whole entry): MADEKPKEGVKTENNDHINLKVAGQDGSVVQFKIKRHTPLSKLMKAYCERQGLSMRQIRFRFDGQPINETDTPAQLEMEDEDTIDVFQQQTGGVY

Sequence of Fructose-bisphosphate aldolase (P9WQA3 whole entry): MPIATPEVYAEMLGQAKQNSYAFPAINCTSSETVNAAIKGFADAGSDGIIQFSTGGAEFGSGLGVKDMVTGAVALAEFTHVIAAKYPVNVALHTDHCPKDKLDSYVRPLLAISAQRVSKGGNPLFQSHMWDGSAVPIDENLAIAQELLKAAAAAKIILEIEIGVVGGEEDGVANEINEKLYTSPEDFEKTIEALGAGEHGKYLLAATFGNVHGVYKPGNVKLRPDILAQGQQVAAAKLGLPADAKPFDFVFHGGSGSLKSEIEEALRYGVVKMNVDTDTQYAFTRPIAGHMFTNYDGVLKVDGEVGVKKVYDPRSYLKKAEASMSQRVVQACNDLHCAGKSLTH

Which IC50 [1] does the source give for N#Cc1c(N2CCCCC2)nc(N)c2c(N)nc(SCC(=O)O)cc12 here?
The IC50 was 8.03 µM (active).

And the IC50 (SUMO-activating enzyme)?
The IC50 was 0.86 µM (active).

And the IC50 [2]?
The IC50 was 8.26 µM (active).

What about the IC50 [3] of the same molecule?
The IC50 was 44.1 µM (not active).

What about the IC50 [4] of the same molecule?
Its IC50 is > 7.45 µM (active).

Which AC50 (A-375) does the source give for CC1(C)Cc2ccccc2C2=NNC(=O)C2=N1 here?
Its AC50 is 35.3 µM (active).

For CCc1ccc(S(=O)(=O)Nc2cc(SCC(=O)O)c(O)c3ccccc23)cc1, which IC50 [5] is on record?
The IC50 was 50 µM (inactive).

For O=[N+]([O-])c1ccc(Sc2cccc[n+]2[O-])c2nonc12, which AC50 (Caspase-6) is on record?
The AC50 was 7.21 µM (active).

What does the source list for CCCC(=O)NC(c1ccc(C(C)C)cc1)c1ccc2cccnc2c1O (stereo unspecified)?
IC50 [6]: > 119 µM (inactive); IC50 (HEK293): 24.8 µM (inactive); CC50 (Vero): 2.88 µM (active)

For Oc1c(Cl)cc(Cl)c(Cl)c1Cc1c(O)c(Cl)cc(Cl)c1Cl [HEXACHLOROPHENE], which IC50 [7] is on record?
Its IC50 is 0.0572 µM (active).

And the IC50 [8]?
The IC50 was 0.0157 µM (active).

What about the IC50 [9] of the same molecule?
The IC50 was 0.46 µM (active).

What about the IC50 [10] of the same molecule?
Its IC50 is 0.0312 µM (active).

And the IC50 [11]?
The IC50 was 15.8 µM (active).
